Positions of bridges follow the written chain, without caps; N, C: chain ends. Non-standard residues stand in square brackets, D forms with d. No end group written: not given here.
Tested on: 5637 bladder cancer cells
Experiment: Alanine walk and X5 glycine addition, bead binding to 5637 cells
Set-up: species or system human
Conditions: compared with parental PLZ4
Protocol: FIG. 6A-C. Binding of PLZ4 to ανβ3 integrin A. PLZ4 binds to ανβ3 integrin. Beads coated with PLZ4 peptides were incubated with K562 cells transfected with different integrin subunits. PLZ4 can only bind to K562 cells when ανβ3 integrin is expressed on the surface. B. Alanine walk to determine the amino acids important for cell binding. Each amino acid in PLZ4 (SEQ ID NO: 5) was replaced with alanine one at a time to generate beads covered with new peptides (SEQ ID NOS 24-30, respectively, in order of appearance) (alanine walk), and tested for their binding to 5637 bladder cancer cells. Semi-quantitative system was used to determine binding activity: ++++ means very strong binding with 75-100% bead surface covered by cells; +++ means strong binding with 50-74% bead surface covered by cells; […] binding with 25-49% bead surface covered by cells; + means weak binding with 1-24% bead surface covered by cells; − means no binding. C. The effects of glycine residues at the X5 position on the binding of PLZ4 to bladder cancer cells. The peptides on beads in each panel have the same backbone sequence (cQDGRKGFc; SEQ ID NO:11) as PLZ4 (cQDGRMGFc; SEQ ID NO:12) except the M at the X5 position has been replaced with K. One (c) to six (h) numbers of glycine were conjugated to K from Panel c to h (SEQ ID NO:13). The OBOC beads were incubated with 5637 TCC cells. […]

“cQDGRKGFc ([dC]QDGRKGF[dC]; disulfide 1-9) [PLZ4 backbone with the M at the X5 position replaced with K]” was tested, and the “binding of modified peptides on beads to 5637 cells” value was “no significant changes in binding”.

Reference: US10335365B2, “Bladder cancer specific ligand peptides” (The Regents of the University of California, priority 2009, dated 2019)
